Measured values: patent US9981972B2, “N-hydroxy bicyclic hydantoin carbamates as tools for identification of serine hydrolase targets” (ABIDE THERAPEUTICS, INC., priority 2014, dated 2018)

Experiments:
Assay in all cases: Gel-based competitive ABPP in vitro, mouse brain membrane proteome
Format in all cases: biochemical
LYPLA2 = molecular target: T1, LYPLA2 (Mus musculus, UniProt Q9WTL7); details: mouse brain (mem) proteome
T1 construct: a complex proteome endogenously expressing LYPLA1/2 was incubated with test compound; from tissue; host or cells: mouse brain, membrane fraction
T1 sequence (Q9WTL7 whole entry): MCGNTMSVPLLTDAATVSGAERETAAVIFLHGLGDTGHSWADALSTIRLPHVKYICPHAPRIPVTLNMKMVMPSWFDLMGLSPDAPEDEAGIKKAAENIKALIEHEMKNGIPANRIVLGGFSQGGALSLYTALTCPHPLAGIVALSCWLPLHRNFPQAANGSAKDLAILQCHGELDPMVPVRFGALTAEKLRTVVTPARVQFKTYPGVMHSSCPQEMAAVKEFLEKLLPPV
Method in brief: (§1)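 Mouse brain membrane proteome (1 mg/mL in DPBS) was treated with compound (0.1-100 μM) for 30 min at 37 °C, then labeled with FP-Rh (2 μM final, 30 min, 25 °C). Bands were resolved by SDS-PAGE and scanned in-gel, with inhibition taken from band optical density versus DMSO. Targets counted as active or anti-targets at ≥50% inhibition.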

LYPLA1 = molecular target: T2, LYPLA1 (Mus musculus, UniProt P97823); details: mouse brain (mem) proteome
T2 construct: a complex proteome endogenously expressing LYPLA1/2 was incubated with test compound; from tissue; host or cells: mouse brain, membrane fraction
T2 sequence (P97823 whole entry): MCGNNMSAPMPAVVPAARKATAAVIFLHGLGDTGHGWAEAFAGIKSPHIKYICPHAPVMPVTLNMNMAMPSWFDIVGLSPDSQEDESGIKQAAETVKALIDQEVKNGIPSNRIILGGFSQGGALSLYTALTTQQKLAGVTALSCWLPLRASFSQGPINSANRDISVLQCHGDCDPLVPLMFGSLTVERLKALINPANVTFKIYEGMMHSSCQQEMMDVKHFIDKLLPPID
Method in brief: as §1

ABHD6 = molecular target: T3, ABHD6 (Mus musculus, UniProt Q8R2Y0)
T3 construct: from tissue; host or cells: mouse brain, membrane fraction
T3 sequence (Q8R2Y0 1-336): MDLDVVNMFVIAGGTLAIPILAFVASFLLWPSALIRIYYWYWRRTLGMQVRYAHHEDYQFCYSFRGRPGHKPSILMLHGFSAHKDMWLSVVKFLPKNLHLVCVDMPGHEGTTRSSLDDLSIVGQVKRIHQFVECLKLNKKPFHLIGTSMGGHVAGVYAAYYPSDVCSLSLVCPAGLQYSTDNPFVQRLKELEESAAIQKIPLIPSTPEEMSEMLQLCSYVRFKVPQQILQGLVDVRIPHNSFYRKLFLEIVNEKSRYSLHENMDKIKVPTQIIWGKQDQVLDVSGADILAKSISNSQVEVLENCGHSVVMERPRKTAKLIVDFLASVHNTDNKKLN
Protocol: (§2) Assay Overview: The purpose of this assay was to determine whether test compounds can inhibit LYPLA1 and LYPLA2 in a complex proteomic lysate and to assess anti-target inhibition using a competitive activity-based proteomic profiling (ABPP) assay. In this assay, a complex proteome endogenously expressing LYPLA1/2 was incubated with test compound followed by reaction with a rhodamine-conjugated fluorophosphonate (FP-Rh) serine-hydrolase specific activity-based probe. The reaction products were separated by SDS-PAGE and visualized in-gel using a flatbed fluorescence scanner. The percentage activity remaining was determined by measuring the integrated optical density of the bands. […] Percent inhibition was calculated relative to a DMSO (no compound) control.
(§3) Protocol Summary: Mouse brain membrane proteome (50 μL reaction volume, 1 mg/mL in DPBS) was treated with 0.1-100 μM test compound (1 μL of a 50× stock in DMSO) for 30 minutes at 37° C. FP-Rh (1 μL of 50× stock in DMSO, Thermo #88318) was added to a final concentration of 2 μM. The reactions were incubated for 30 minutes at 25° C., quenched with 16 μL 4×SDS-PAGE loading buffer (reducing), separated by SDS-PAGE and visualized by in-gel fluorescent scanning. The percentage activity remaining was determined by measuring the integrated optical density of the bands relative to a DMSO-only (no compound) control. Assay Cutoff: Compounds with ≥50% inhibition of targets at 1 μM test compound concentration were considered active.
(§4) Assay Overview: The purpose of this assay was to determine IC50 values of powder samples of test compounds for enzyme of interest activity, and anti-targets in a complex proteomic lysate using a gel-based competitive ABPP assay. In this assay, a complex proteome was incubated with test compound followed by reaction with FP-Rh and SDS-PAGE analysis as described above.
(§5) Protocol Summary: Soluble HeLa cell proteome (50 μL reaction volume, 1 mg/mL in DPBS) or mouse brain membrane proteome (50 μL reaction volume, 1 mg/mL in DPBS) was treated with varying concentrations of test compound (1 μL of a 50× stock in DMSO) for 30 minutes at 37° C. FP-Rh (1 μL of 50× stock in DMSO) was added to a final concentration of 2 μM. The reaction was incubated for 30 minutes at 25° C., quenched with 16 μL 4×SDS-PAGE loading buffer (reducing), separated by SDS-PAGE and visualized by in-gel fluorescent scanning. The percentage activity remaining was determined by measuring the integrated optical density of the enzymes of interest, and anti-target bands relative to a DMSO-only (no compound) control. IC50 values were determined from dose-response curves from three replicates at each inhibitor concentration: 1, 10, 100, 1000, 10000 nM and 0.01, 0.1, 1, 10, 100, 1000, 10000, 50000, and 100000 nM.

FAAH = molecular target: T4, FAAH (Mus musculus, UniProt O08914); details: 10 μM, mouse brain (mem) proteome
T4 construct: from tissue; host or cells: mouse brain, membrane fraction
T4 sequence (O08914 1-579): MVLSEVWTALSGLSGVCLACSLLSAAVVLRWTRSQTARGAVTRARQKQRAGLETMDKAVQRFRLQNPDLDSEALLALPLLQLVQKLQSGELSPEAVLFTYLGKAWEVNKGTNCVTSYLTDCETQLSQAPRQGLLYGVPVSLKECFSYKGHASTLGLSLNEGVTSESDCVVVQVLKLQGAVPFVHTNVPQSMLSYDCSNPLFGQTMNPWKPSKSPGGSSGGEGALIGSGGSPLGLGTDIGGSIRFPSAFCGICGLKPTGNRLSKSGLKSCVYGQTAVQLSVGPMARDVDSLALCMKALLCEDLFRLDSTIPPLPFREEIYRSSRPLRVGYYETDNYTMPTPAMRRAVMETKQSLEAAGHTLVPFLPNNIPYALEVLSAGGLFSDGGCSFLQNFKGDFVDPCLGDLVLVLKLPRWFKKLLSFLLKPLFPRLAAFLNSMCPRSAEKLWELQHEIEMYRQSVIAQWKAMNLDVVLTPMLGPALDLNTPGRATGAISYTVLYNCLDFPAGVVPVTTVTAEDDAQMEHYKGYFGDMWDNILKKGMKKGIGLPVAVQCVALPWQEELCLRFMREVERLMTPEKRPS
Protocol: as §2, §3, §4, §5

| LYPLA2 in vitro enzyme activity, % @ 10 μM (LYPLA2) [% @] | LYPLA1 in vitro enzyme activity, % @ 10 μM (LYPLA1) [% @] | ABHD6 in vitro enzyme activity, % @ 1 μM (ABHD6; mouse brain (mem) proteome) [% @] | FAAH in vitro enzyme activity, % @ 10 μM (FAAH) [% @] | LYPLA2 in vitro enzyme activity, % @ 1 μM (LYPLA2) [% @] | LYPLA1 in vitro enzyme activity, % @ 1 μM (LYPLA1) [% @] | IC50 (ABHD6; mouse ABHD6, in vitro, read-out: mABHD6 in vitro potency (IC50)) [nM] | LYPLA2 in vitro enzyme activity, % @ 20 μM (LYPLA2; 20 μM) [% @] | LYPLA1 in vitro enzyme activity, % @ 20 μM (LYPLA1; 20 μM) [% @] | ABHD6 in vitro enzyme activity, % @ 20 μM (ABHD6; 20 μM, mouse brain (mem) proteome) [% @] | SMILES |
| --- | --- | --- | --- | --- | --- | --- | --- | --- | --- | --- |
| 0 | 0 | 100 | 0 |  |  |  |  |  |  | COc1ccc(N2CCN(C(=O)ON3C(=O)C4CN(CC5CCN(Cc6ccccc6)CC5)CCN4C3=O)CC2)cc1 (stereo not drawn) [Compound 52, 7-((1-benzylpiperidin-4-yl)methyl)-1,3-dioxo-hexahydroimidazo[1,5-a]pyrazin-2(3H)-yl 4-(4-methoxyphenyl)piperazine-1-carboxylate] |
|  |  | 100 | 50 | 75 | 75 |  |  |  |  | C#Cc1ccc(CCC2CCN(C(=O)ON3C(=O)[C@H]4CN(C(=O)N5CCOCC5)CCN4C3=O)CC2)cc1 [Compound 49, (R)-7-(morpholine-4-carbonyl)-1,3-dioxo-hexahydroimidazo[1,5-a]pyrazin-2(3H)-yl 4-(4-ethynylphenethyl)piperidine-1-carboxylate] |
|  |  | 100 | 50 | 75 | 75 |  |  |  |  | C#Cc1ccc(CCC2CCN(C(=O)ON3C(=O)C4CN(C(=O)N5CCOCC5)CCN4C3=O)CC2)cc1 (stereo not drawn) [Compound 53, 7-(morpholine-4-carbonyl)-1,3-dioxo-hexahydroimidazo[1,5-a]pyrazin-2(3H)-yl 4-(4-ethynylphenethyl)piperidine-1-carboxylate] |
|  |  | 100 | 0 | 100 | 100 | 2.5 |  |  |  | O=C(ON1C(=O)[C@H]2CN(C(=O)N3CCOCC3)CCN2C1=O)N1CCC(CCc2ccc(Cl)cc2)CC1 [Compound 51, (R)-7-(morpholine-4-carbonyl)-1,3-dioxohexahydroimidazo[1,5-a]pyrazin-2(3H)-yl 4-(4-chloro-phenethyl)piperidine-1-carboxylate] |

Continued, compound first:

| SMILES | LYPLA2 in vitro enzyme activity, % @ 10 μM (LYPLA2) [% @] | LYPLA1 in vitro enzyme activity, % @ 10 μM (LYPLA1) [% @] | ABHD6 in vitro enzyme activity, % @ 1 μM (ABHD6; mouse brain (mem) proteome) [% @] | FAAH in vitro enzyme activity, % @ 10 μM (FAAH) [% @] | LYPLA2 in vitro enzyme activity, % @ 1 μM (LYPLA2) [% @] | LYPLA1 in vitro enzyme activity, % @ 1 μM (LYPLA1) [% @] | IC50 (ABHD6; mouse ABHD6, in vitro, read-out: mABHD6 in vitro potency (IC50)) [nM] | LYPLA2 in vitro enzyme activity, % @ 20 μM (LYPLA2; 20 μM) [% @] | LYPLA1 in vitro enzyme activity, % @ 20 μM (LYPLA1; 20 μM) [% @] | ABHD6 in vitro enzyme activity, % @ 20 μM (ABHD6; 20 μM, mouse brain (mem) proteome) [% @] |
| --- | --- | --- | --- | --- | --- | --- | --- | --- | --- | --- |
| O=C(ON1C(=O)[C@@H]2CN(C(=O)N3CCOCC3)CCN2C1=O)N1CCN(CCc2ccc(Cl)cc2)CC1 [Compound 41, (S)-7-(morpholine-4-carbonyl)-1,3-dioxo-hexahydroimidazo[1,5-a]pyrazin-2(3H)-yl 4-(4-chlorophenethyl)piperazine-1-carboxylate] | 100 | 100 | 100 | 100 |  |  |  |  |  |  |
| C#Cc1ccc(CCC2CCN(C(=O)ON3C(=O)[C@@H]4CN(C(=O)N5CCOCC5)CCN4C3=O)CC2)cc1 [Compound 48, (S)-7-(morpholine-4-carbonyl)-1,3-dioxo-hexahydroimidazo[1,5-a]pyrazin-2(3H)-yl 4-(4-ethynylphenethyl)piperidine-1-carboxylate] |  |  | 100 | 75 | 75 | 75 |  |  |  |  |
| C#CCOc1ccc(N2CCN(C(=O)ON3C(=O)[C@H]4CN(CC5CCN(Cc6ccccc6)CC5)CCN4C3=O)CC2)cc1 [Compound 47, (R)-7-((1-benzylpiperidin-4-yl)methyl)-1,3-dioxo-hexahydroimidazo[1,5-a]pyrazin-2(3H)-yl 4-(4-(prop-2-ynyloxy)phenyl)piperazine-1-carboxylate] | 0 | 0 | 100 | 0 |  |  |  |  |  |  |
| O=C(ON1C(=O)[C@@H]2CN(Cc3ccc(Br)cc3)CCN2C1=O)N1CCC(CCc2ccc(Cl)cc2)CC1 [Compound 40, (S)-7-(4-bromobenzyl)-1,3-dioxohexahydroimidazo[1,5-a]pyrazin-2(3H)-yl4-(4-chlorophenethyl)piperidine-1-carboxylate] | 50 | 50 | 100 | 50 |  |  |  |  |  |  |
| COc1ccc(N2CCN(C(=O)ON3C(=O)[C@@H]4CN(CC5CCN(Cc6ccccc6)CC5)CCN4C3=O)CC2)cc1 [Compound 42, (S)-7-((1-benzylpiperidin-4-yl)methyl)-1,3-dioxo-hexahydroimidazo[1,5-a]pyrazin-2(3H)-yl 4-(4-methoxyphenyl)piperazine-1-carboxylate] | 100 | 50 | 100 | 0 |  |  |  |  |  |  |
| O=C(ON1C(=O)C2CN(Cc3ccc(Oc4ccccc4)cc3)CCN2C1=O)N1CCC(c2ccccc2)CC1 (stereo not drawn) [Compound 38, 1,3-dioxo-7-(4-phenoxybenzyl)hexahydroimidazo[1,5-a]pyrazin-2(3H)-yl 4-phenylpiperidine-1-carboxylate] |  |  |  |  |  |  |  | 0 | 0 | 100 |
| C#CCOc1ccc(N2CCN(C(=O)ON3C(=O)[C@@H]4CN(Cc5ccc(Oc6ccccc6)cc5)CCN4C3=O)CC2)cc1 [Compound 44, (S)-1,3-dioxo-7-(4-phenoxybenzyl)-hexahydroimidazo[1,5-a]pyrazin-2(3H)-yl 4-(4-(prop-2-ynyloxy)phenyl)piperazine-1-carboxylate] | 0 | 0 | 100 | 0 |  |  |  |  |  |  |
| COc1ccc(N2CCN(C(=O)ON3C(=O)[C@H]4CN(CC5CCN(Cc6ccccc6)CC5)CCN4C3=O)CC2)cc1 [Compound 43, (R)-7-((1-benzylpiperidin-4-yl)methyl)-1,3-dioxo-hexahydroimidazo[1,5-a]pyrazin-2(3H)-yl 4-(4-methoxyphenyl)piperazine-1-carboxylate] | 0 | 0 | 100 | 0 |  |  |  |  |  |  |
